Legend:
Experiment in all cases: Antiviral assay with recombinant virus generated from site-directed mutant virus
Type in all cases: cell-based, HIV
T66I/S153Y mutations = system: T66I/S153Y mutations
Protocol: (§1) The integrase encoding sequence was amplified from either wildtype HIV-1 (IIIB) or NL4.3 virus, or HXB2D site-directed mutant viruses containing mutations in integrase (such as T66I, S153Y, M154I, or combinations thereof) (Hazuda et al., Science 2000, 287, 646-650), or patient samples. Starting from RNA, extracted from virus supernatant or plasma using the QIAamp® viral RNA extraction kit (Qiagen), cDNA was synthesized by reverse transcription (Expand TM reverse transcriptase, 30 min at 42°C) with the primer 3'EGINT10 (SEQ ID NO 11), followed by a nested PCR. The outer PCR was performed with the primers 5'EGINT1 (SEQ ID NO 1) and 3'EGINT10 (SEQ ID NO 11) (ΔR-IN-vif construct) or 5'EGINT3 (SEQ ID NO 4) and 3'EGINT10 (SEQ ID NO 11) (ΔIN construct) (Expand™ High Fidelity PCR system), and 5 µl of the outer product was used for an inner PCR with primers 5'EGINT2 (SEQ ID NO 3) and 3'EGINT11 (SEQ ID NO 12) (ΔR-IN-vif construct) or 5'EGINT4 (SEQ ID NO 5) and 3'EGINT6 (SEQ ID NO 7) (ΔIN construct). In a second protocol the outer primers were identical as described above, the inner primers are 5'EGINT5 (SEQ ID NO 6) and 3'EGINT6 (SEQ ID NO 7). The amplicons can be used for genotyping and phenotyping. Cycling conditions for both PCRs are denaturation for 3 min at 95°C, followed by 30 cycles of 1 min 90°C, 30 sec 55°C, and 2 min 72°C. A final extension was performed at 72°C for 10 min. For recombination, PCR products are purified using the QiaQuick® 96 PCR BioRobot kit (Qiagen), according to the manufacturer's protocol. If the protocol starts from DNA containing the HIV material such as proviral DNA, the reverse transcriptase step is not needed. The nested approach is also not needed when starting from proviral DNA. The obtained amplicons were sequenced using the primers: In_seq1F (SEQ ID NO 17), In_seq2F (SEQ ID NO 18), In_seq3F (SEQ ID NO 19), IN_seq1R (SEQ ID NO 20), IN_seq2R (SEQ ID NO 21), and IN_seq3R (SEQ ID NO 22).
(§2) Recombinant virus was produced by co-transfection by electroporation of the SmaI-linearized IN-deletion construct and the integrase amplicon into MT4 cells or MT4 cells equipped with an LTR driven reporter gene construct. Production of recombinant virus was evaluated by scoring the cytopathogenic effect (CPE) that is induced by HIV-infection of MT4 cells or by the LTR-driven reporter signal induced by HIV infection in MT4 reporter cells. Green fluorescent protein was used as the reporter signal. Viruses are harvested and titrated at maximum CPE. For recombination the deletion construct pSV40HXB2D-ΔIN was used. Recombination experiments were performed with amplicon from wildtype HIV IIIB and NL4.3, and patient sample 146514 generated by both primer sets. For each recombination 2 µg amplicon was co-transfected with 10 µg SmaI-digested pSV40HXB2D-ΔIN by electroporation into MT4-LTR-EGFP cells. Virus stocks were titrated and tested in an antiviral experiment on a reference panel including nucleoside reverse transcriptase inhibitors (NRTI), non- nucleoside reverse transcriptase inhibitors (NNRTI), protein inhibitor (PR), entry and integrase (IN) inhibitors (Table 2). Recombination was checked by nucleic acid sequence analysis using protocols known to the person skilled in the art. Sequencing primers which can be used are In_seq1F (SEQ ID NO 17), In_seq2F (SEQ ID NO 18), In_seq3F (SEQ ID NO 19), IN_seq1R (SEQ ID NO 20), IN_seq2R (SEQ ID NO 21), and IN_seq3R (SEQ ID NO 22).

S153Y = system: S153Y
Protocol: as §1, §2

M154I mutation = system: M154I mutation
Protocol: as §1, §2

T661/M154I mutations = system: T661/M154I mutations
Protocol: as §1, §2

T66I mutation = system: T66I mutation
Protocol: as §1, §2

Which results are given for `CC(C)Oc1ccc(Cc2ccccc2)cc1C(=O)CC(=O)C(=O)O` [Compound 4, 2-(1-methylethyloxy)-α,γ dioxo-5-(phenylmethyl)-benzenebutanoic acid]?
fold increase in EC50 (T66I/S153Y mutations): 10 fold; fold increase in EC50 (S153Y): 5 fold; fold increase in EC50 (M154I mutation): 3 fold; fold increase in EC50 (T661/M154I mutations): 10 fold; fold increase in EC50 (T66I mutation): 2 fold

Source: patent publication EP1285971B1, “Methods for the phenotypic and genotypic assessment of the drug sensitivity of HIV integrase variants” (Tibotec Pharmaceuticals Ltd., priority 2001, dated 2003)
